Assay results published in patent US20130035343A1, “COMBINATION OF ORGANIC COMPOUNDS” (priority 2010, published 2013).

System: patient-derived HCC xenograft lines (07-0409, 29-0909A, 01-0909)
Experiment: Patient-derived HCC xenograft models in SCID mice
Conditions: for tumor growth rate of xenografts / tumor regressions: single agent therapy, 30 mg/kg Compound of Formula I or 5 mg/kg RAD001 orally daily, HCC07-0409
[1] = 30 mg/kg Compound of Formula I orally daily, SCID mice

Protocol: Xenograft models: All mice were provided with sterilized food and water ad libitum and housed in negative pressure isolators with 12 hours light/dark cycle. Primary HCCs have previously been used to create xenograft lines, of which the following lines (07-0409, 29-0909A, 01-0909) were used to establish tumors in male SCID mice (Animal Resources Centre, Canning Vale, Western Australia) aged 9 to 10 weeks.
Tumor treatment: Compound of Formula I and RAD001 was dissolved in vehicle at an appropriate concentration before treatment. Mice bearing indicated tumors were orally administered 5 mg/kg RAD001 or 30 mg/kg Compound of Formula I daily, or two compounds combined for indicated days. Each treatment group was comprised of 10 animals and each experiment was repeated at least twice. Treatment started on day 7 after tumor implantation. By this time, the tumors reached the size of approximately 100 mm^3. Tumor growth was monitored and tumor volume was calculated as described. At the end of the study, the mice were sacrificed with body and tumor weights recorded and the tumors harvested for analysis. The efficacy of Compound of Formula I was determined by T/C ratio, where T and C are median weight of drug-treated and vehicle-treated tumor respectively at the end of treatment.

| SMILES | tumor growth rate of xenografts | tumor regressions | acute mortality throughout treatment [1] | body weight loss throughout treatment [1] | anti-tumor activities on patient-derived HCC xenograft lines (lines 07-0409, 29-0909A, 01-0909, 30 mg/kg orally daily) |
| --- | --- | --- | --- | --- | --- |
| CO[C@H]1C[C@@H]2CC[C@@H](C)[C@@](O)(O2)C(=O)C(=O)N2CCCC[C@H]2C(=O)O[C@H]([C@H](C)C[C@@H]2CC[C@@H](OCCO)[C@H](OC)C2)CC(=O)[C@H](C)/C=C(\C)[C@@H](O)[C@@H](OC)C(=O)[C@H](C)C[C@H](C)/C=C/C=C/C=C/1C [RAD001, 40-O-(2-hydroxy)ethyl-rapamycin, reference compound] | inhibited | did not induce tumor regressions |  |  |  |
| CN1CCN(c2ccc3nc(-c4c(N)c5c(F)cccc5[nH]c4=O)[nH]c3c2)CC1 [Compound of Formula I, 4-Amino-5-fluoro-3-[6-(4-methylpiperazin-1-yl)-1H-benzimidazol-2-yl]-1H-quinolin-2-one] | inhibited | did not induce tumor regressions | no acute mortality | no significant weight loss | observed |
